IC50 data for 96 compounds are collected here from PubChem BioAssay AID712 (Emory University Molecular Libraries Screening Center, 2007).

Activity calls are given as the source filed them. The rule behind the calls is not given here.

This experiment deals with Heat shock protein HSP 90-alpha (Homo sapiens) (UniProt P07900). As to the kind of experiment: tumor Hsp90 inhibitor potency, dose response (AID 712). Particulars: Hsp90 inhibition assay.

In the case of `Cc1ccc(C(=O)O)cc1S(=O)(=O)NCC1CCCO1` (stereo unspecified), the IC50 is > 50 µM (inactive).
With `O=C1c2ccccc2C(Nc2ccc3c(c2)OCO3)N1Cc1ccc2c(c1)OCO2` (stereo unspecified) the figure was > 50 µM (inactive).
Consider `Nc1cc(=O)[nH]c(SCC(=O)c2ccc3c(c2)OCO3)n1`, for which the IC50 was > 50 µM (inactive).
To `COc1ccc(C2CC(=O)C3=C(C2)Nc2ncnn2C3c2ccccc2)cc1` (stereo unspecified) belongs > 50 µM (inactive).
With `CCn1nc(-c2ccccc2)nc2c(=O)n(C)c(=O)nc1-2` the figure was 0.136 µM; with `Nc1cc2ccccc2c(O)c1O`, under 1.56 µM; with `Nc1ccc(NS(=O)(=O)c2cc(Cl)ccc2Cl)cc1-c1ccccc1O`, > 50 µM (inactive).
`N#Cc1c(-c2ccco2)[nH]c(=O)[nH]c1=O`: the IC50 was > 50 µM (inactive).
To `COc1ccc2c(c1-c1cc(NS(=O)(=O)c3cccc(N)c3)ccc1N)OCO2` belongs > 50 µM (inactive).
For `COC(=O)c1ccc2c(c1)SC1=C(CCCC1=O)N2`, the IC50 is 10.9 µM.
To `Oc1cc(O)c2ncccc2c1` belongs > 50 µM (inactive).
In the case of `O=C(c1cc(-c2ccncc2)nc2ccc(Br)cc12)N1CCN(c2ccccn2)CC1`, the IC50 was > 50 µM (inactive).
As to `COc1ccc(OC)c(-n2c(C)nc3cc(C(=O)O)ccc32)c1`, the IC50 was 29.8 µM.
On to `O=C(Nc1nc(-c2ccc3c(c2)OCO3)cs1)C1COc2ccccc2O1` (stereo unspecified), for which the IC50 was > 50 µM (inactive).
`O=C(NCc1cccnc1)C1c2ccccc2C(=O)N1Cc1ccco1` (stereo unspecified): the IC50 is > 50 µM (inactive).
For `CC(=O)CCCNc1c(OCc2ccccc2)ccc2c(C)cc(=O)oc12`, the IC50 was > 50 µM (inactive).
To `Cc1cc(=O)oc2c(N)c(OCc3ccccc3)ccc12` belongs > 50 µM (inactive).
To `CC(C)c1cc(Nc2cccc(O)c2)cc(C(C)C)c1O` belongs 27.2 µM; to `O=C(O)c1ccc2c3c(ncnc13)-c1ccccc1C2=O`, 5.22 µM; to `Nc1cc(N)c(OCC(F)(F)F)cc1OCC(F)(F)F`, “inactive”.
To `CCOC(=O)c1sc(NC(=O)CSc2nnc(-c3ccc(OC)cc3)n2CCOC)nc1C` belongs > 50 µM (inactive); to `COc1cc(NCCCC(C)=NO)c2nccc(OCc3ccccc3)c2c1`, > 50 µM (inactive); to `COc1cc(N)c2nccc(OCc3ccccc3)c2c1`, > 50 µM (inactive).
As for `CC(=O)c1ccc(NC(=O)CSc2nnc(Cc3cccn3C)n2-c2ccc(F)cc2)cc1`, the IC50 is > 50 µM (inactive).
With `CN(C)[C@@H]1C(=O)C(C(N)=O)=C(O)[C@@]2(O)C(=O)C3=C(O)c4c(O)cccc4[C@@](C)(O)[C@H]3C[C@@H]12` the figure was 22.4 µM.
To `COc1cc(NCC(O)CN(CC(C)C)CC(C)C)c2nc(C)ccc2c1` (stereo unspecified) belongs > 50 µM (inactive).
With `O=S(=O)(NC1CCc2ccccc21)c1ccc(S(=O)(=O)N2CCCC2)cc1` (stereo unspecified), the IC50 was > 50 µM (inactive).
With `Nc1ccc(CSc2ccc(Cl)cc2)c(O)c1` the figure was > 50 µM (inactive); with `CCc1cc(C(=O)Cc2cscn2)c(O)cc1O`, > 50 µM (inactive); with `CC(C)(C)OC(=O)Nc1cccc(NS(=O)(=O)c2cc(Cl)ccc2Cl)c1-c1ccccc1O`, > 50 µM (inactive).
To `O=S(=O)(Nc1cc(OCc2ccccc2)cc2cccnc12)c1ccc(F)cc1` belongs > 50 µM (inactive).
For `O=C(O)CCC(=O)NCc1ccc2[nH]c3c(c2c1)CCCC3`, the IC50 was > 50 µM (inactive).
As for `CCSc1nnc2c(n1)OC(c1ccc(C(=O)O)cc1)N(C(C)=O)c1ccccc1-2` (stereo unspecified), the IC50 is > 50 µM (inactive).
With `O=C1c2ccccc2-c2onc3ccc(NCc4ccco4)c1c23` the figure was under 1.56 µM; with `CCCCn1c(NC(=O)c2ccco2)c(C(=O)OCC)c2nc3ccccc3nc21`, > 50 µM (inactive); with `O=S(=O)(c1cccc(-c2nnco2)c1)N1CCCC1`, > 50 µM (inactive).
In the case of `Cc1c(-c2nn(C)c(=O)c3ccccc23)oc2ccc(F)cc2c1=O`, the half-inhibitory concentration (IC50) is 2.46 µM.
Take `O=[N+]([O-])c1cccc(S(=O)(=O)Nc2ccc(O)c(-c3ccccc3O)c2)c1`: the IC50 was > 50 µM (inactive).
Take `Oc1ccc(-c2onc(C(F)(F)F)c2-c2cscn2)c(O)c1`: the IC50 was 18 µM.
Turning to `O=c1c(-c2ccc3c(c2)OCCO3)coc2c(CN3CCOCC3)c(O)ccc12`, the IC50 is > 50 µM (inactive).
With `O=C1c2ccccc2C(=O)N1Cc1ccc2c(c1)OCO2` the figure was > 50 µM (inactive); with `Cc1ccccc1Nc1cc2ccccc2c(=O)[nH]1`, “inactive”; with `CC(=O)c1cccc(NC(=O)CSc2nnc(-c3ccc(S(=O)(=O)N4CCCC4)cc3)o2)c1`, > 50 µM (inactive).
As to `Nc1cc(N)nc(SCCOc2ccccc2F)n1`, the IC50 was > 50 µM (inactive).
In the case of `Nc1ccc(Cc2ccccc2)c(O)c1`, the IC50 is > 50 µM (inactive).
To `Oc1ccc(-c2nc(-c3ccc(O)c(O)c3)cs2)cc1` belongs 0.74 µM; to `Oc1cccc2cccnc12`, > 50 µM (inactive).
For the compound `Cn1c(=O)c2c(nc(NCc3ccc4c(c3)OCO4)n2C)n(C)c1=O`, the IC50 was > 50 µM (inactive).
To `Cn1ncnc2c(=O)n(C)c(=O)nc1-2` belongs 0.238 µM.
To `CCn1c(CSc2nccn2C)nc2cc(C(=O)O)ccc21` belongs 13.4 µM; to `Nc1ccc2ncccc2c1N`, 3.38 µM; to `COc1cc(N)c2nccc(Cl)c2c1`, > 50 µM (inactive).
With `COc1ccc(S(=O)(=O)N(C)CC(=O)N2CCC(C(N)=O)CC2)cc1Cl`, the IC50 is > 50 µM (inactive).
To `Nc1cccc2cnccc12` belongs > 50 µM (inactive); to `COc1ccc(-c2nc(CS(=O)CC(=O)NCc3ccccn3)c(C)o2)cc1` (stereo unspecified), 19.3 µM.
To `N#Cc1cc(S(=O)(=O)Nc2ccc(F)c(-c3c(O)ccc4c3OCO4)c2)ccc1F` belongs 25 µM.
For the compound `O=C1C(c2cnc3c(n2)CCC=C3)=C(O)c2ccccc21`, the IC50 is > 50 µM (inactive).
To `COc1cccc(C(=O)NCC(=O)n2nc(C)cc2C)c1` belongs > 50 µM (inactive).
With `CC(C)OC(=O)CSc1nc2ccccc2s1` the figure was > 50 µM (inactive); with `CCOc1ccc(S(=O)(=O)Nc2cc(Sc3ncn[nH]3)c3oc(=O)sc3c2)cc1`, “inactive”.
With `CCOC(=O)NC1(NCc2ccccc2)Oc2ccccc2O1` the entry was “inactive”; with `Nc1nc2c(s1)CCc1c-2cnn1-c1ccccc1`, 11.2 µM; with `CCCc1cc2c(cc1NS(=O)(=O)c1ccc(CCNC(C)=O)cc1)OCO2`, > 50 µM (inactive).
Turning to `N#C/C(=C\c1ccc(O)c(O)c1)C(=O)NCCCc1ccccc1`, the half-maximal inhibitory concentration (IC50) was 19.1 µM.
To `Nc1cccc(S(=O)(=O)Nc2ccc(N)c(-c3ccccc3O)c2)c1` belongs > 50 µM (inactive); to `COc1ccc2c(c1-c1cc(NS(=O)(=O)c3cccc([N+](=O)[O-])c3)ccc1N)OCO2`, > 50 µM (inactive).
With `CCOC(=O)NC1(Nc2ccc(Cl)cn2)Oc2ccccc2O1` the figure was > 50 µM (inactive).
With `COc1cc(NCCN(CC(C)C)CC(C)C)c2ncccc2c1` the entry was “inactive”.
Turning to `Cc1[nH]c2c(N)cccc2c1C`, the IC50 was > 50 µM (inactive).
With `Nc1cc2c(c(O)c1O)C(=O)c1ccccc1C2=O` the figure was under 1.56 µM.
With `COc1ccc(C2=NO[C@@H]3C(=O)N(c4ccc5c(c4)OCCO5)C(=O)[C@H]23)cc1OC` the figure was 29.7 µM.
As to `O=S(=O)(Nc1cc(O)cc2cccnc12)c1ccc(F)cc1`, the half-maximal inhibitory concentration (IC50) was 11.2 µM.
With `C[C@H]1CCC[C@H](O)CCCCCc2cc(O)cc(O)c2C(=O)O1` the figure was 2.65 µM; with `Oc1ccc2ccccc2c1C=NC12CN3CCN(CN(C3)C1)C2`, 6.41 µM; with `N#Cc1cc(S(=O)(=O)Nc2cc(O)cc3cccnc23)ccc1F`, “inactive”.
With `C[C@H]1CCCC(=O)CCCCCc2cc(O)cc(O)c2C(=O)O1` the figure was 2.2 µM.
To `O=C(NCCN1CCOCC1)NC1(C(F)(F)F)Oc2ccc(Cl)cc2O1` (stereo unspecified) belongs > 50 µM (inactive); to `c1ccc2sc(SCc3ccc(-c4nnco4)cc3)nc2c1`, > 50 µM (inactive).
Regarding `COc1ccc2c(c1-c1cc(NS(=O)(=O)c3ccc(C)cc3)ccc1N)OCO2`, the IC50 was > 50 µM (inactive).
For `COc1cc(NS(=O)(=O)c2ccc(F)c(C#N)c2)c2ncccc2c1`, the IC50 is > 50 µM (inactive).
With `N#CCSc1nnc2[nH]c(=O)cc(N)n12` the figure was > 50 µM (inactive); with `O=C(CSc1n[nH]c(-c2ccccc2)n1)c1ccc(O)c(O)c1`, 7.72 µM; with `Cc1ccc(S(=O)(=O)N2CCC(C(=O)N[C@@H](C)C(=O)Nc3ccc4c(c3)OCO4)CC2)cc1`, 11.9 µM.
To `CC1(C)CC(=O)c2c(O)cc(O)cc2O1` belongs > 50 µM (inactive).
Regarding `CCc1cc(C(=O)Cc2ccc(F)cc2)c(O)cc1O`, the IC50 was > 50 µM (inactive).
As for `O=[N+]([O-])c1ccc(NS(=O)(=O)c2ccccc2)c(O)c1`, the IC50 was > 50 µM (inactive).
With `COc1ccccc1-c1nnc2n1N=C(c1ccc(O)c(O)c1)CS2`, the half-maximal inhibitory concentration (IC50) is 10.7 µM.
As to `C=CCNC(=O)CN(c1cccc(Br)c1)S(C)(=O)=O`, the IC50 was > 50 µM (inactive).
As for `CC(OC(=O)c1cccs1)C(=O)NCc1cccs1` (stereo unspecified), the IC50 is > 50 µM (inactive).
On to `CCOc1ccc2ccccc2c1-c1cc(NS(=O)(=O)c2ccc(OC)c(OC)c2)ccc1N`, for which the IC50 is > 50 µM (inactive).
With `COc1cccc(C(=O)NC2CC3CCCC(C2)N3CC(=O)Nc2ccccc2)c1` (stereo unspecified) the figure was 15.7 µM.
With `Cc1cc(SCC(N)=O)nc(SCC(=O)c2ccccc2)n1` the figure was > 50 µM (inactive).
Turning to `CCN(CC)CCCCCNc1cc(O)cc2cccnc12`, the IC50 is 6.25 µM.
For the compound `O=C(OC1CCc2ccccc2C1=O)c1ccccc1O` (stereo unspecified), the IC50 is > 50 µM (inactive).
With `CCOc1ccc(NCC(=O)Nc2ccc(C)cc2C)cc1` the figure was 7.86 µM; with `CN(C)C=Nc1c(Br)cc(Br)c2nonc12`, > 50 µM (inactive).
